Data on three compounds can be found in patent publication US9586986B2, “Substituted 7-deazapurine ribonucleosides for therapeutic uses” (Institute of Organic Chemistry and Biochemistry ASCR, v.v.i., priority 2014, dated 2017).

Where only a bound is given, the exact number is not on record here.

Broadly, the melting point is the temperature, or range, at which the solid turns liquid.

The test system of one data set is K562-TAX. Briefly: Cytostatic/cytotoxic MTT assay, K562-TAX. It is filed as cell-based. As to conditions: Homo sapiens, paclitaxel resistant subline, 72 h, read-out: MTT, IC50 K562-TAX. An excerpt: (§1) Unless otherwise stated, all cells were purchased from the […] (ATCC). The CCRF-CEM line is derived from T lymphoblastic leukemia, evincing high chemosenzitivity, K562 represent cells from a […] patient sample with bcr-abl translocation, HCT116 is colorectal tumor cell line and its p53 gene knock-down counterpart (HCT116p53−/−, Horizon Discovery, UK) is a model of human cancers with p53 inactivation frequently associated with poor prognosis, A549 cell line is lung adenocarcinoma. The daunorubicin resistant subline of CCRF-CEM cells (CEM-DNR bulk) and paclitaxel resistant subline K562-TAX were selected in our laboratory by cultivation of maternal cell lines in increasing concentrations of daunorubicine or paclitaxel, respectively. The CEM-DNR cells overexpress mrp-1 and mdr-1 genes, while K562-TAX cells overexpress mdr-1 only. Both proteins belong to the family of ABC transporters and are involved in the primary and/or acquired multidrug resistance phenomenon (ref.: Gottesman, M. M.; Fojo, T.; Bates, S. E. Multidrug resistance in cancer: role of ATP-dependent transporters. Nat. Rev. Cancer. 2002, 2, 48-58. (b) Noskova, V.; Dzubak, P.; Kuzmina, G.; Ludkova, A.; Stehlik, D.; Trojanec, R.; Janostakova, A.; Korinkova, G.; Mihal, V.; Hajduch, M. In vitro chemoresistance profile and expression/function of MDR associated proteins in resistant cell lines derived from CCRF-CEM, K562, A549 and MDA MB 231 parental cells. Neoplasma 2002, 49, 418-425). Non-malignant MRC-5 and BJ cells, derived from normal human fibroblasts, were used as controls. The cells were maintained in Nunc/Corning 80 cm^2 plastic tissue culture flasks and cultured in cell culture medium (DMEM/RPMI 1640 with 5 g/L glucose, 2 mM glutamine, 100 U/mL penicillin, 100 µg/mL streptomycin, 10% fetal calf serum, and NaHCO3). Cell suspensions were prepared and diluted according to the particular cell type and the expected target cell density (25,000-30,000 cells/well based on cell growth characteristics). Cells were added by pipette (80 L) into 96-well microtiter plates. Inoculates were allowed a pre-incubation period of 24 h at 37° C. and 5% CO2 for stabilization. Four-fold dilutions, in 20-L aliquots, of the intended test concentration were added to the microtiter plate walls at time zero. All test compound concentrations were examined in duplicate. Incubation of the cells with the test compounds lasted for 72 h at 37° C., in a 5% CO2 atmosphere at 100% humidity. At the end of the incubation period, the cells were assayed using MTT. Aliquots (10 L) of the MTT stock solution (5 mg/ml) were pipetted into each well and incubated for another 1-4 h. After this incubation period the formazan produced was dissolved by addition of 100 µL/well of 10% aq SDS (pH 5.5), followed by a further incubation at 37° C. overnight. The optical density was measured at 540 nm. The IC50 value, the drug concentration inhibiting the cell growth by 50%, was calculated from appropriate dose-response curves.
(§2) In vitro cytotoxic/cytostatic activity final nucleosides 1-5 was initially evaluated against […] cell lines derived from human solid tumors including lung (A549 cells) and colon (HCT116 and HCT116p53−/−) carcinomas, as well as leukemia cell lines (CCRF-CEM, CEM-DNR, K562 and K562-TAX) and, for comparison, non-malignant BJ and MRC-5 fibroblasts. Concentrations inhibiting the cell growth by 50% (IC50) were determined using a quantitative metabolic staining with 3-(4,5-dimethylthiazol-2-yl)-2,5-diphenyltetrazolium bromide (MTT) (ref.: Denizot, F.; Lang, R. Rapid colorimetric assay for cell growth and survival: Modifications to the tetrazolium dye procedure giving improved sensitivity and reliability. J. Immunol. Meth. 1986, 89, 271-277) following a 3-day treatment.
(§3) Multidrug resistance is a major therapeutic problem in cancer chemotherapy. […]
(In general: Tetrazolium dyes change colour on reduction, which living cells bring about.)

The subject of the next data set is CEM-DNR-bulk. Briefly: Cytostatic/cytotoxic MTT assay, CEM-DNR-bulk. The conditions noted are these: Homo sapiens; daunorubicin resistant subline, 72 h; read-out: MTT, IC50 CEM-DNR-bulk. It is filed as cell-based.
Excerpt: as §1, §2, §3

A further data set relates to K562. Nature of the data set: Cytostatic/cytotoxic MTT assay, K562. It is filed as cell-based. The conditions noted are these: Homo sapiens, K562; 72 h incubation; read-out: MTT, IC50 K562.
Excerpt: as §1, §2

For a further data set, the system named is HepG2. Briefly: XTT cytotoxicity assay, HepG2. It is filed as cell-based. The conditions noted are these: Homo sapiens, HepG2; 72 h incubation; read-out: XTT, IC50 HepG2. The procedure: (§4) HL-60, Hela S3 and HepG2 cell lines (ATCC) were grown in RPMI-1640 or DMEM medium supplemented with 10% fetal calf serum, […] of streptomycin, 200 U/mL of penicillin G and 4 mM glutamine in a humidified atmosphere containing 5% CO2 at 37° C. Sensitivity of these cell lines to the synthesized compounds was assessed with the use of XTT cell proliferation kit II (Roche Diagnostics GmbH, Mannheim, Germany) according to the manufacturer's instructions. Briefly, cells were seeded in a 96-well plate at a density of 10,000 cells per well (90 μL). After 24 h, 10 μL of the tested compounds were added to the culture media at desired concentration range and incubated for 72 h. After that 50 μL of the XTT solution was added (1 mg/mL XTT+0.383 mg/mL N-methyl dibenzopyrazine methyl sulfate). The absorbance was recorded at 495 nm following a 2 h-incubation with the dye. IC50 values were determined by non-linear regression method using GraphPad Prism version 5.00 for Windows (GraphPad Software, La Jolla, Calif., USA).

The test system of another data set is BJ. Briefly: Cytostatic/cytotoxic MTT assay, BJ fibroblasts. It is filed as cell-based. The conditions noted are these: Homo sapiens, non-malignant fibroblasts, 72 h, read-out: MTT, IC50 BJ.
Excerpt: as §1, §2

Another data set has as its system HL60. Briefly: XTT cytotoxicity assay, HL-60. It is filed as cell-based. The conditions noted are these: Homo sapiens, HL-60; 72 h incubation; read-out: XTT, IC50 HL60. Here is the method: as §4
(§5) In addition, the anti-proliferative effect was tested against a human T-lymphoblastic leukemia line CCRF-CEM, promyelocytic leukemia HL-60 and cervical carcinoma HeLa S3 growing in liquid suspension. Cell viability was determined following a 3-day incubation using 2,3-bis-(2-methoxy-4-nitro-5-sulfophenyl)-2H-tetrazolium-5-carboxanilide (XTT) assay (ref.: Scudiero, D. A.; Shoemaker, R. H.; Paull, K. D.; Monks, A.; Tierney, S.; Nofziger, T. H.; Currens, M. J.; Seniff, D.; Boyd M. R. Evaluation of a Soluble Tetrazolium/Formazan Assay for Cell Growth and Drug Sensitivity in Culture Using Human and Other Tumor Cell Lines. Cancer Res. 1988, 48, 4827-4833).

The next data set has as its system HeLa S3. Nature of the data set: XTT cytotoxicity assay, HeLa S3. It is filed as cell-based. The conditions noted are these: Homo sapiens, HeLa S3; 72 h incubation; read-out: XTT, IC50 HeLa S3. The procedure:
as §4, §5

Another data set deals with HCT116p53-/-. Briefly: Cytostatic/cytotoxic MTT assay, HCT116p53-/-. As to conditions: Homo sapiens, HCT-116; 72 h incubation; read-out: MTT, IC50 HCT116 p53-/-. It is filed as cell-based.
Excerpt: as §1, §2, §3

The next data set deals with HCT116. Nature of the data set: Cytostatic/cytotoxic MTT assay, HCT116. As to conditions: Homo sapiens, HCT-116; 72 h incubation; read-out: MTT, IC50 HCT116. It is filed as cell-based.
Excerpt: as §1, §2, §3

The test system of the next data set is CCRF-CEM. Nature of the data set: Cytostatic/cytotoxic MTT assay, CCRF-CEM. It is filed as cell-based. As to conditions: Homo sapiens, 72 h incubation, read-out: MTT, IC50 CCRF-CEM.
Excerpt: as §1, §2

The next data set relates to A549. Briefly: Cytostatic/cytotoxic MTT assay, A549. It is filed as cell-based. As to conditions: Homo sapiens, A549; 72 h incubation; read-out: MTT, IC50 A549.
Excerpt: as §1, §2

For another data set, the system named is MRC-5. Nature of the data set: Cytostatic/cytotoxic MTT assay, MRC-5 fibroblasts. It is filed as cell-based. The conditions noted are these: Homo sapiens, MRC5; non-malignant fibroblasts, 72 h; read-out: MTT, IC50 MRC-5.
Excerpt: as §1, §2

For the compound `CNc1ncnc2c1c(I)cn2[C@@H]1O[C@H](CO)[C@@H](O)[C@H]1O` [Compound 3h, 5-Iodo-4-methylamino-7-(β-D-ribofuranosyl)-7H-pyrrolo[2,3-d]pyrimidine], the IC50 in the data set on K562-TAX was greater than 20 µM; in the data set on CEM-DNR-bulk, greater than 20 µM; in the data set with K562, greater than 100 µM; in the data set with HepG2, greater than 20 µM; with BJ it was greater than 100 µM; with HL60 it was greater than 20 µM. Besides, the IC50 in the data set with HeLa S3 was greater than 20 µM; in the data set on HCT116p53-/-, greater than 100 µM; in the data set with HCT116, greater than 100 µM; in the data set on CCRF-CEM, greater than 100 µM; with A549, greater than 100 µM; with MRC-5, greater than 100 µM.
In the case of `Cc1ncnc2c1c(I)cn2[C@@H]1O[C@H](CO)[C@@H](O)[C@H]1O` [Compound 5h, 5-Iodo-4-methyl-7-(β-D-ribofuranosyl)-7H-pyrrolo[2,3-d]pyrimidine], the IC50 in the data set on K562-TAX is greater than 20 µM; in the data set on CEM-DNR-bulk it was 12.6 µM; with K562, 17.8 µM; with HepG2 it was 3.46 µM; in the data set with BJ, greater than 100 µM; in the data set with HL60 it was 2.65 µM. Moreover, the IC50 is 4.08 µM in the data set with HeLa S3; 7.57 µM with HCT116p53-/-; 4.72 µM in the data set on HCT116; 5.48 µM in the data set with CCRF-CEM; 12.2 µM in the data set with A549; 13.3 µM with MRC-5.
Compound `Cc1ncnc2c1c(Br)cn2[C@@H]1O[C@H](CO)[C@@H](O)[C@H]1O` [Compound 5i, 5-Bromo-4-methyl-7-(β-D-ribofuranosyl)-7H-pyrrolo[2,3-d]pyrimidine] displayed a melting point of 188 to 189 °C. Further, in the data set on K562-TAX, the IC50 is 15.8 µM. In the data set with CEM-DNR-bulk, the IC50 was greater than 20 µM. Moreover, the IC50 with K562 was greater than 20 µM. Also, the IC50 in the data set on HepG2 came out at 5.55 µM. For the same compound, the IC50 with BJ is greater than 100 µM. In addition, the IC50 in the data set on HL60 amounted to 7.24 µM. Besides, the IC50 in the data set with HeLa S3 is 13.8 µM. For the same compound, the IC50 in the data set with HCT116p53-/- was determined as 19.6 µM. For the same compound, in the data set with HCT116, the IC50 amounted to 15.7 µM. Moreover, in the data set with CCRF-CEM, the IC50 stood at 15 µM. The IC50 in the data set with A549 was greater than 20 µM. Also, in the data set on MRC-5, the IC50 worked out at 24.4 µM.
